The record followed here is patent US6147100A, “Pyrrolidine derivatives having phospholipase A2 inhibitory activity” (Shionogi & Co., Ltd., priority 1997, dated 2000).

Broadly, the IC50 is the point on the concentration scale where inhibition reaches its midpoint. A low value points to inhibition by little substance.

Each structure is given as a SMILES string.

Assay [1] concerns the target T1, cPLA2 (Homo sapiens, UniProt P47712).
T1 sequence (P47712 1-749): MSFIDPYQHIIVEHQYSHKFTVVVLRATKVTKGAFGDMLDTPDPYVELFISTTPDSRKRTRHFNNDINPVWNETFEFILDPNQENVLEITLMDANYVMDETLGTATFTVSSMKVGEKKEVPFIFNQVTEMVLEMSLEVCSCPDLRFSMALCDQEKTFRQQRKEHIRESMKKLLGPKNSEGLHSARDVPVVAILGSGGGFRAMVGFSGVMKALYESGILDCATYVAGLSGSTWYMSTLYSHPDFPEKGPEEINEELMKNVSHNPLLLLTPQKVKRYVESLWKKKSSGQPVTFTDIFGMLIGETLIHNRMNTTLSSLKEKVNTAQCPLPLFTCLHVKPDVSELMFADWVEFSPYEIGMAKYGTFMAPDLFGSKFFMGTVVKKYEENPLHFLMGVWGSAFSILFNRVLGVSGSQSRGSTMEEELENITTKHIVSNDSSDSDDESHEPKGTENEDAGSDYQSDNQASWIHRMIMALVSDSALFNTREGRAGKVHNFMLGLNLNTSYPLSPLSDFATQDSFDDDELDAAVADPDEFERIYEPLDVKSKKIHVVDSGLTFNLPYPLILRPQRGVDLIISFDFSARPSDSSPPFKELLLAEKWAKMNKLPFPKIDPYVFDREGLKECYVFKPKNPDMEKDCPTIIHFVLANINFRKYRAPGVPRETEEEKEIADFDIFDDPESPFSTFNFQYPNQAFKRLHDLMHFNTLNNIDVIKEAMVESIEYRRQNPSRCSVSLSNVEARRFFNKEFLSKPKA
Briefly: cPLA2 Inhibitory Activity. In kind it is biochemical. The following applies: 1-palmitoyl-2-[14C]-arachidonoyl-sn-glycero-3-phosphocholine 2.5 μM, sn-1,2-dioleoylglycerol 1.25 μM; pH 7.5, 15 min at 37° C. An outline of the steps: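 Radiometric assay in 50 mM HEPES pH 7.5 with 1 mM CaCl2, 150 mM NaCl, 0.1 mg/ml BSA and 1.7 mM DTT; compound and substrate added, reaction started with enzyme, 15 min at 37° C. Released fatty acids extracted (Dole method), counted by liquid scintillation versus no-compound control.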

In assay [2] the test system is production of prostaglandin E2 by human fibroblasts. Briefly: Inhibition of Production of Prostaglandin E2 in Human Fibroblasts (IL-1 stimulation). In kind it is cell-based. The following applies: Fibroblast; human fibroblasts under stimulation with IL-1. An outline of the steps:
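Human fibroblasts stimulated with IL-1, with prostaglandin E2 production measured in the presence of compound as a cellular read-out of cPLA2 inhibition.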

On to `O=C1NC(=O)/C(=C/c2ccc(C=C[C@@H]3C[C@@H](OCc4ccccc4-c4ccccc4)CN3C(=O)c3ccccc3C(=O)c3ccc(F)cc3)cc2)S1` [Compound E-4], for which the values for the IC50 in assay [1] and in assay [2] were 1100 nM and 1200 nM, respectively.
Take `O=C1NC(=S)S/C1=C\c1ccc(/C=C\[C@@H]2C[C@@H](OCc3ccccc3-c3ccccc3)CN2C(=O)c2ccccc2C(=O)c2ccc(F)cc2)s1` [Compound E-5]: the IC50 in assay [1] was 750 nM; in assay [2] it was 3500 nM.
As for `O=C1NC(=O)/C(=C/c2ccc(CCC[C@@H]3C[C@@H](OCc4ccccc4-c4ccccc4)CN3C(=O)c3ccccc3C(=O)c3ccc(F)cc3)cc2)S1` [Compound E-9], the IC50 in assay [1] was 1000 nM; in assay [2] it was 6500 nM.
The like results for `O=C1NC(=O)/C(=C/c2ccc(/C=C\C[C@@H]3C[C@@H](OCc4ccccc4-c4ccccc4)CN3C(=O)c3ccccc3C(=O)c3ccc(F)cc3)cc2)S1` [Compound E-12] were, in that order, 350 nM and 5700 nM.
For `O=C1NC(=O)/C(=C/c2ccc(/C=C/C[C@@H]3C[C@@H](OCc4ccccc4-c4ccccc4)CN3C(=O)c3ccccc3C(=O)c3ccc(F)cc3)cc2)S1` [Compound E-14], the IC50 in assay [1] was 98 nM; in assay [2], 5600 nM.
On to `O=C(C[C@@H]1C[C@@H](OCc2ccccc2-c2ccccc2)CN1C(=O)c1ccccc1C(=O)c1ccc(F)cc1)Nc1ccc(/C=C2\SC(=S)NC2=O)cc1` [Compound F-3], for which the IC50 in assay [1] was 420 nM; in assay [2], 3000 nM.
For `CN(C[C@@H]1C[C@@H](OCc2ccccc2-c2ccccc2)CN1C(=O)c1ccccc1C(=O)c1ccc(F)cc1)C(=O)c1ccc(/C=C2\SC(=O)NC2=O)cc1` [Compound G-1], the IC50 in assay [1] was found to be 780 nM; in assay [2], 980 nM.
In the case of `O=C1NC(=O)/C(=C/c2ccc(C(=O)NC[C@@H]3C[C@H](SCc4ccccc4-c4ccccc4)CN3C(=O)c3ccccc3C(=O)c3ccc(F)cc3)cc2)S1` [Compound I-1], the IC50 in assay [1] was 100 nM; in assay [2] it was 260 nM.
For the compound `O=C1NC(=O)/C(=C/c2ccc(C(=O)NC[C@@H]3C[C@H](SCc4ccccc4)CN3C(=O)c3ccccc3C(=O)c3ccccc3)cc2)S1` [Compound I-2], the values for the IC50 in assay [1] and in assay [2] were 1000 nM and 660 nM, respectively.
Turning to `O=C1NC(=O)/C(=C/c2ccc(S(=O)(=O)NC[C@@H]3C[C@@H](SCc4ccccc4-c4ccccc4)CN3C(=O)c3ccccc3C(=O)c3ccc(F)cc3)cc2)S1` [Compound I-3], the values for the IC50 in assay [1] and in assay [2] were 55 nM and 980 nM, respectively.
The like results for `O=C1NC(=S)S/C1=C\c1ccc(S(=O)(=O)NC[C@@H]2C[C@@H](SCc3ccccc3-c3ccccc3)CN2C(=O)c2ccccc2C(=O)c2ccc(F)cc2)cc1` [Compound I-4] were, in that order, 480 nM and 1300 nM.
As to `O=C1NC(=O)/C(=C/c2ccc(C(=O)NC[C@@H]3C[C@@H](SCc4ccccc4-c4ccccc4)CN3C(=O)c3ccccc3C(=O)c3ccc(F)cc3)cc2)S1` [Compound I-5], the results for the IC50 in assay [1] and in assay [2] were 34 nM and 490 nM, respectively.
As for `O=C1NC(=S)S/C1=C\c1ccc(C(=O)NC[C@@H]2C[C@@H](SCc3ccccc3-c3ccccc3)CN2C(=O)c2ccccc2C(=O)c2ccc(F)cc2)cc1` [Compound I-6], the results for the IC50 in assay [1] and in assay [2] were 71 nM and 260 nM, respectively.
On to `O=C1NC(=O)/C(=C/c2ccc(C(=O)NC[C@@H]3C[C@@H](SCc4ccccc4-c4ccccc4)CN3C(=O)c3ccccc3C(=O)c3ccc(F)cc3)s2)S1` [Compound I-7], for which the values for the concentration for half-maximal inhibition (IC50) in assay [1] and in assay [2] were 39 nM and 690 nM, respectively.
On the same counts, the results for `O=C1NC(=S)S/C1=C\c1ccc(C(=O)NC[C@@H]2C[C@@H](SCc3ccccc3-c3ccccc3)CN2C(=O)c2ccccc2C(=O)c2ccc(F)cc2)s1` [Compound I-8] are 33 nM and 1000 nM.
Turning to `O=C1NC(=O)/C(=C/c2ccc(S(=O)(=O)NC[C@@H]3C[C@@H](SCc4ccccc4-c4ccccc4)CN3C(=O)c3ccccc3C(=O)c3ccc(F)cc3)s2)S1` [Compound I-9], the figures for the IC50 in assay [1] and in assay [2] were 240 nM and 1800 nM, respectively.
`O=C1NC(=S)S/C1=C\c1ccc(S(=O)(=O)NC[C@@H]2C[C@@H](SCc3ccccc3-c3ccccc3)CN2C(=O)c2ccccc2C(=O)c2ccc(F)cc2)s1` [Compound I-10]: the figures for the IC50 in assay [1] and in assay [2] were 760 nM and 320 nM, respectively.
Take `O=C1NC(=O)/C(=C/c2ccc(NC(=O)[C@@H]3C[C@@H](SCc4ccccc4-c4ccccc4)CN3C(=O)c3ccccc3C(=O)c3ccc(F)cc3)cc2)S1` [Compound J-1]: the IC50 turned out to be 84 nM in assay [1] and 120 nM in assay [2].
On the same counts, the results for `O=C1NC(=S)S/C1=C\c1ccc(NC(=O)[C@@H]2C[C@@H](SCc3ccccc3-c3ccccc3)CN2C(=O)c2ccccc2C(=O)c2ccc(F)cc2)cc1` [Compound J-2] are 23 nM and 960 nM.
For `O=C1NC(=O)/C(=C/c2ccc(NC(=O)[C@@H]3C[C@@H](SCc4ccccc4-c4ccccc4)CN3C(=O)c3ccccc3C(=O)c3ccc(F)cc3)s2)S1` [Compound J-3], the values for the IC50 in assay [1] and in assay [2] were 430 nM and 5700 nM, respectively.
Consider `O=C1NC(=S)S/C1=C\c1ccc(NC(=O)[C@@H]2C[C@@H](SCc3ccccc3-c3ccccc3)CN2C(=O)c2ccccc2C(=O)c2ccc(F)cc2)s1` [Compound J-4], for which the half-maximal inhibitory concentration (IC50) in assay [1] amounted to 810 nM; in assay [2], 5200 nM.
Turning to `O=C1NC(=S)S/C1=C\c1ccc(NC(=O)[C@@H]2C[C@@H](SCc3ccccc3-c3ccccc3)CN2C(=O)c2ccccc2C(=O)c2ccc(F)cc2)c(O)c1` [Compound J-7], the IC50 in assay [1] was determined as 500 nM; in assay [2] it was 6200 nM.
Take `O=C1NC(=O)/C(=C/c2ccc(C(=O)NC[C@@H]3C[C@@H](N(Cc4ccccc4)Cc4ccccc4)CN3C(=O)c3ccccc3C(=O)c3ccc(F)cc3)cc2)S1` [Compound M-3]: the values for the IC50 in assay [1] and in assay [2] were 60 nM and 3100 nM, respectively.
In the case of `CC(C)CN(Cc1ccccc1)[C@@H]1C[C@@H](CNC(=O)c2ccc(/C=C3\SC(=O)NC3=O)cc2)N(C(=O)c2ccccc2C(=O)c2ccc(F)cc2)C1` [Compound M-5], the IC50 came out at 100 nM in assay [1] and 3000 nM in assay [2].
Consider `CN(Cc1ccccc1-c1ccccc1)[C@@H]1C[C@@H](CNC(=O)c2ccc(/C=C3\SC(=O)NC3=O)cc2)N(C(=O)c2ccccc2C(=O)c2ccc(F)cc2)C1` [Compound M-6], for which the results for the IC50 in assay [1] and in assay [2] were 140 nM and 1500 nM, respectively.
In the case of `CN(Cc1ccccc1-c1ccccc1)[C@@H]1C[C@@H](CNC(=O)c2ccc(/C=C3\SC(=S)NC3=O)cc2)N(C(=O)c2ccccc2C(=O)c2ccc(F)cc2)C1` [Compound M-7], the IC50 was 270 nM in assay [1] and 1500 nM in assay [2].
Consider `CCN(Cc1ccccc1-c1ccccc1)[C@@H]1C[C@@H](CNC(=O)c2ccc(/C=C3\SC(=O)NC3=O)cc2)N(C(=O)c2ccccc2C(=O)c2ccc(F)cc2)C1` [Compound M-8], for which the results for the IC50 in assay [1] and in assay [2] were 60 nM and 800 nM, respectively.
With `CC(C)N(Cc1ccccc1-c1ccccc1)[C@@H]1C[C@@H](CNC(=O)c2ccc(/C=C3\SC(=O)NC3=O)cc2)N(C(=O)c2ccccc2C(=O)c2ccc(F)cc2)C1` [Compound M-9], the IC50 in assay [1] is 39 nM; in assay [2], 3600 nM.
Regarding `CC(C)CN(Cc1ccccc1-c1ccccc1)[C@@H]1C[C@@H](CNC(=O)c2ccc(/C=C3\SC(=O)NC3=O)cc2)N(C(=O)c2ccccc2C(=O)c2ccc(F)cc2)C1` [Compound M-10], the IC50 in assay [1] stood at 22 nM; in assay [2], 270 nM.
The like results for `CC(C)CCN(Cc1ccccc1-c1ccccc1)[C@@H]1C[C@@H](CNC(=O)c2ccc(/C=C3\SC(=O)NC3=O)cc2)N(C(=O)c2ccccc2C(=O)c2ccc(F)cc2)C1` [Compound M-11] were, in that order, 36 nM and 970 nM.
Regarding `CN(C(c1ccccc1)c1ccccc1)[C@@H]1C[C@@H](CNC(=O)c2ccc(/C=C3\SC(=O)NC3=O)cc2)N(C(=O)c2ccccc2C(=O)c2ccc(F)cc2)C1` [Compound M-12], the figures for the IC50 in assay [1] and in assay [2] were 94 nM and 230 nM, respectively.
For the compound `O=C1NC(=O)/C(=C/c2ccc(C(=O)NC[C@@H]3C[C@@H](N(CC4CC4)C(c4ccccc4)c4ccccc4)CN3C(=O)c3ccccc3C(=O)c3ccc(F)cc3)cc2)S1` [Compound M-14], the figures for the IC50 in assay [1] and in assay [2] were 27 nM and 1400 nM, respectively.
The like results for `CC(C)CN(C(c1ccccc1)c1ccccc1)[C@@H]1C[C@@H](CNC(=O)c2ccc(/C=C3\SC(=O)NC3=O)cc2)N(C(=O)c2ccccc2C(=O)c2ccc(F)cc2F)C1` [Compound M-17] were, in that order, 4.1 nM and 1000 nM.
On to `CC(C)CN(Cc1ccccc1)[C@@H]1C[C@@H](CNC(=O)/C=C/c2ccc(/C=C3\SC(=O)NC3=O)cc2)N(C(=O)c2ccccc2C(=O)c2ccc(F)cc2)C1` [Compound M-18], for which the IC50 in assay [1] turned out to be 79 nM; in assay [2] it was 8800 nM.
